What was measured:
[1] = system: patient-derived cisplatin-resistant mesenchymal NSCLC cells; conditions: WO/2014/006020; cited from earlier work
[2] = system: mesenchymal A549 spheroids; assay: Spheroid viability / cell death by LDH activity in media; assay type: cell-based, Human; conditions: T12 10 μM for the last 2 days of 4-day EMT induction; FIG. 7B
Experimental: FIG. 7. T12 disrupts collagen IV network and reduces A549 mesenchymal spheroids viability. A549 spheroids were subjected to EMT induction with TGF-β and TNF-α during 4 days, and treated with T12 (10 μM) or maintained untreated (Cont) for the last 2 days. In A, spheroids were analyzed by immunofluorescence confocal microscopy with anti-α1α2 (IV) antibodies (COL4, white) and DAPI to visualize the cell nuclei (grey). In B, the culture media of the spheroids in A were used for assessing cell death by measuring LDH activity. […] Represented are Means (±SEM).
For some purposes, culture media were cleared by centrifugation (500×g, 10 min, room temperature) and LDH activity in supernatants determined with Lactate Dehydrogenase Activity Assay Kit (Sigma-Aldrich).
Three-dimensional spheroid cultures of A549 cells were obtained using a hanging droplet method (Kelm et al., 2003. Biotechnol. Bioeng. 83: 173-180.; Kumar et al., 2013. PLoS One. 8: e68597). Briefly, cells were grown to approximately 80% confluence on adherent tissue-culture flasks. Then cells were trypsinized, dispersed in DMEM/10% FBS, and counted using an automated cell counter (MOXI® Z, Orflo). The cell suspension was diluted to a 10^6 cells/mL-concentration, and 25 μl of the cell suspension were pipetted onto the underside of a sterile 10-cm tissue culture plate lid. Each lid was loaded with approximately 55 droplets. […]

circulating 4T1 cells = assay: Cell death / caspase 3 activation in circulating 4T1 cells; assay type: cell-based, Mouse
Experimental: FIG. 11. T12 targets circulating 4T1 cancer cells. A, Balb/c female mice were inoculated with 4T1 mouse breast cancer cells at mammary fat pads. At day 20 after cell inoculation mice were subjected to PET analysis for metastases detection. White arrows denote metastatic foci at the spinal cord. B, Balb/c female from A were either left untreated (Control), or were treated with T12 in drinking water from day 20. At day 35 blood was seeded in the presence of 6-thioguanine and circulating 4T1 cells selected and further cultured. Shown are phase contrast images of the resulting cultures acquired with an inverted microscope. […] C, circulating 4T1 cells recovered as in B and 4T1 cells were cultured in standard 2D cultures and subjected to RNA extraction, and RNA samples were analyzed by RT-qPCR. Shown are the relative quantities (RQ) of the indicated mRNAs of circulating 4T1 cells using levels from 4T1 cells as reference. […] Dead cells in culture media were quantified by measuring cell size using an automated cell counter (Moxi Z, Orflo). […] E, circulating 4T1 cells recovered as in B or 4T1 cells were cultured in ultra-low binding plates and treated with the indicated concentrations of T12 for 9 days, cells were lysed and analyzed by Western blot using antibodies specific for activated caspase 3. The levels of GAPDH were determined for loading control purposes. […]

COc1ccc(-c2ccc(-c3cccc(C)c3)c(C)c2)c(CCC(=O)O)c1 [T12, 3-[4″-methoxy-3,2′-dimethyl-(1,1′;4′,1″)terphenyl-2″-yl] propionic acid]
toxicity [1]: high-toxicity | cell viability (LDH activity in culture media) [2]: reduced cell viability | sensitivity to T12 after further induction of mesenchymal phenotype (circulating 4T1 cells; 4T1 cells inoculated into mice or cultured in low adherent dishes (3D cultures), FIG. 11): more sensitivity to T12 | sensitivity to T12: dead cells and activated caspase 3 (circulating 4T1 cells; 24 h (dead cells) or 9 days in ultra-low binding plates (caspase 3), FIG. 11D-E): more sensitive and underwent apoptotic cell death (caspase 3 activation)

From US20160184274A1, “Methods for inhibiting mesenchymal phenotype after epithelial-to-mesenchymal transition” (Fibrostatin, S.L., priority 2014, published 2016)
